Source: patent publication US5324648A, “Substituted isocoumarins as serine protease inhibitors and anti-inflammatory agents” (Georgia Tech Research Corporation, priority 1992, dated 1994)
Read-outs that look alike come from different tables or passages of the source.

Key:
[1] = molecular target: chymotrypsin (Bos taurus, UniProt P00766); assay: Inactivation of chymotrypsin; format: biochemical, bovine; conditions: pH 7.5, 25° C, read-out: kobs/[I]
[2] = molecular target: T1, human leukocyte elastase (HLE) (Homo sapiens, UniProt P08246); assay: Inactivation of human leukocyte elastase (HLE); format: biochemical; conditions: for kinact/KI: Table IV, pH 7.5, 25° C, [I] 0.001 to 0.18 mM, read-out: kobs/[I]
T1 construct: from tissue; host or cells: human leukocytes (from the name)
T1 sequence (P08246 30-267): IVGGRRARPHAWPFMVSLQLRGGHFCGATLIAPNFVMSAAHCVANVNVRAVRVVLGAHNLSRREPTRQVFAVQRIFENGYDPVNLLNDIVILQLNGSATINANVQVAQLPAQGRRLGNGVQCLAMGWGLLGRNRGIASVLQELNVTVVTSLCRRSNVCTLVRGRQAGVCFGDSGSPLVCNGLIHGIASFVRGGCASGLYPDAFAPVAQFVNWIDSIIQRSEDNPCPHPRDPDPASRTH

[3] = molecular target: T2, cathepsin G (Homo sapiens, UniProt P08311); assay: Inactivation of cathepsin G; format: biochemical; conditions: for kinact/KI: pH 7.5, 25° C, read-out: kobs/[I]
T2 construct: from tissue; host or cells: human leukocytes
T2 sequence (P08311 21-255): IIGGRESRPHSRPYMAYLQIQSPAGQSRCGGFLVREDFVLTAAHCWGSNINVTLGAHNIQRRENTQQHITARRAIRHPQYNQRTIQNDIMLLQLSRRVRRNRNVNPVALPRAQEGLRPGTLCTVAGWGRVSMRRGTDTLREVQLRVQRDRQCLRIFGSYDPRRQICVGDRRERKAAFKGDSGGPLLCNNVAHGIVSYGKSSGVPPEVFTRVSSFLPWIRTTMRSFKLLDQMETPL
Method: Inactivation rates of serine proteases by substituted isocoumarins were measured by the incubation method. An aliquot of inhibitor (25 or 50 μl) in Me2 SO was added to a buffered enzyme solution (0.01-2.3 μM) to initiate the inactivation. Aliquots (50 μl) were withdrawn at various intervals and the residual enzymatic activity was measured. Me2 SO concentration in the reaction mixture was 8-12% (v/v). 0.1 Hepes, 0.01M CaCl2, pH 7.5 buffer was utilized for trypsin and coagulation enzymes. 0.1M Hepes, 0.5M NaCl, pH 7.5 was utilized for other serine proteases. […] Peptide thioesters or peptide nitroanilides with appropriate sequence were used as substrates for various serine proteases. All peptide thioester hydrolysis rates were measured with assay mixtures containing 4,4'-dithiodipyridine (ε324 =19800M^-1 cm^-1 ; Grasetti & Murray, Arch. Biochem. Biophys. 119, pp 41-49 (1967)). Peptide 4-nitroanilide nitroanilide hydrolysis was measured at 410 nm (ε410 =8800M^-1 cm^-1 ; Erlanger et al., Arch. Biochem. Biophys. 95, pp 271-278 (1961)). First order inactivation rate constant (kobs) were obtained from plots of ln (vt /vo) vs time, and the correlation coefficients were greater than 0.98.
^a Inactivation rates were measured at 0.1M Hepes, 0.5 NaCl, pH 7.5,
8-12% Me2 SO and 25° C. by incubation method.
and assayed for remaining activity.
^a Inhibition rates were measured in 0.1M Hepes, 0.05M NaCl, pH 7.5
buffer, 8-9% Me2 SO and at 25° C.
Me2 SO, pH 7,5 and at 25° C.
^a Inhibition was measured in 0.1M Hepes, 0.5M NaCl, pH 7.5 buffer,
5-10% Me2 SO and at 25° C. Suc--Val--Pro--Phe--NA (0.48 mM)
was used as the substrate for chymotrypsin and cat G.

[4] = molecular target: T3, human factor XIa (Homo sapiens, UniProt P03951); assay: Inactivation rate of human factor XIa; format: biochemical; conditions: Table I; pH 7.5, 25° C; [I] 3 to 330 μM; read-out: kobs/[I]
T3 construct: human factor XIa
Method: (§1) Inactivation rates of serine proteases by substituted isocoumarins were measured by the incubation method. An aliquot of inhibitor (25 or 50 μl) in Me2 SO was added to a buffered enzyme solution (0.01-2.3 μM) to initiate the inactivation. Aliquots (50 μl) were withdrawn at various intervals and the residual enzymatic activity was measured. Me2 SO concentration in the reaction mixture was 8-12% (v/v). 0.1 Hepes, 0.01M CaCl2, pH 7.5 buffer was utilized for trypsin and coagulation enzymes. 0.1M Hepes, 0.5M NaCl, pH 7.5 was utilized for other serine proteases. The inhibitor concentrations are shown in all the tables. Peptide thioesters or peptide nitroanilides with appropriate sequence were used as substrates for various serine proteases. All peptide thioester hydrolysis rates were measured with assay mixtures containing 4,4'-dithiodipyridine (ε324 =19800M^-1 cm^-1; Grasetti & Murray, Arch. Biochem. Biophys. 119, pp 41-49 (1967)). Peptide 4-nitroanilide nitroanilide hydrolysis was measured at 410 nm (ε410 =8800M^-1 cm^-1; Erlanger et al., Arch. Biochem. Biophys. 95, pp 271-278 (1961)). First order inactivation rate constant (kobs) were obtained from plots of ln (vt /vo) vs time, and the correlation coefficients were greater than 0.98.
(§2) ^a Conditions were as 0.1M Hepes, 0.01M CaCl2, pH 7.5 and 8-12%
(§3) Me2 SO and 25° C. Rate constants were measured by incubation
(§4) method unless otherwise noted. An aliquot of inhibitor was added to an
(§5) enzyme solution and aliquots removed with time and assayed for remaining
(§6) enzymatic activity. Firstorder rate constants, kobs were obtained
(§7) from the plots of ln(vt /vo) versus time.
(§8) ^a Inhibition rates were measured in 0.1M Hepes, 0.01M CaCl2, pH
(§9) 7.5 buffer, 8% Me2 SO and at 25° C.

[5] = molecular target: T4, human plasmin (Homo sapiens, UniProt P00747); assay: Inactivation rate of human plasmin; format: biochemical; conditions: Table VI; pH 7.5, 25° C; [I] 4 to 330 μM; read-out: kobs/[I]
T4 construct: human plasmin; from tissue; host or cells: human plasma

[6] = molecular target: T5, human factor XIIa (Homo sapiens, UniProt P00748); assay: Inactivation rate of human factor XIIa; format: biochemical; conditions: Table I; pH 7.5, 25° C; [I] 3 to 330 μM; read-out: kobs/[I]
T5 construct: human factor XIIa
T5 sequence (P00748 373-615 limits assumed): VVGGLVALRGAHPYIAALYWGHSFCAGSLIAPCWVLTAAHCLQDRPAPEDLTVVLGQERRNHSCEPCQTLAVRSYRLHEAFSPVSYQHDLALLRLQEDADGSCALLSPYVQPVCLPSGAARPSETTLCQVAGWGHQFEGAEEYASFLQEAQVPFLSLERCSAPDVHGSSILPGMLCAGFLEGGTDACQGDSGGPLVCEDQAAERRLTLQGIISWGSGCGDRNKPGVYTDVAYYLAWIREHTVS
T5 sequence (P00748 20-372 partner limits assumed): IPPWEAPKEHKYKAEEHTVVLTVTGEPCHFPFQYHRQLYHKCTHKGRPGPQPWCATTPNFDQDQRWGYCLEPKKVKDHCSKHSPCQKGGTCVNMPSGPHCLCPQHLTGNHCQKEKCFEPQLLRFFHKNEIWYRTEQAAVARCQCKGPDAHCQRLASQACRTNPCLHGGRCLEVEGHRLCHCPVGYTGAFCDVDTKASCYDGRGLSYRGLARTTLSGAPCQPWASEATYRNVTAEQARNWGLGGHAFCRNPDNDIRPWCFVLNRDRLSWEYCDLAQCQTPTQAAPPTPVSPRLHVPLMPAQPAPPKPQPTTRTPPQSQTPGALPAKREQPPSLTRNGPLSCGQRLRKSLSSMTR
Method: as §1, §2, §3, §4, §5, §6, §7, §8, §9

[7] = molecular target: T6, porcine pancreatic kallikrein (Sus scrofa, UniProt P00752); assay: Inactivation rate of porcine pancreatic kallikrein; format: biochemical; conditions: Table I; pH 7.5, 25° C; [I] 0.4 to 300 μM; read-out: kobs/[I]
T6 construct: from tissue; host or cells: porcine pancreas (from the name)

[8] = molecular target: T7, bovine thrombin (Bos taurus, UniProt P00735); assay: Inactivation rate of bovine thrombin; format: biochemical; conditions: pH 7.5, 25° C, read-out: kobs/[I]
T7 construct: bovine thrombin
Method: as §1, §2, §3, §4, §5, §6, §7, §8, §9

[9] = molecular target: sheep lung lymph tryptase; assay: Inactivation rate of sheep lung lymph tryptase; format: biochemical; conditions: Table III; pH 7.5, 25° C; [I] 10 to 460 μM
Method: Inactivation rates of serine proteases by substituted isocoumarins were measured by the incubation method. An aliquot of inhibitor (25 or 50 μl) in Me2 SO was added to a buffered enzyme solution (0.01-2.3 μM) to initiate the inactivation. Aliquots (50 μl) were withdrawn at various intervals and the residual enzymatic activity was measured. […] 0.1 Hepes, 0.01M CaCl2, pH 7.5 buffer was utilized for trypsin and coagulation enzymes. […] The inhibitor concentrations are shown in all the tables. Peptide thioesters or peptide nitroanilides with appropriate sequence were used as substrates for various serine proteases.
^a Inactivation rates were measured at 0.1M Hepes, 0.5M NaCl, pH 7.5
buffer, 8% Me2 SO and 25° C.

[10] = molecular target: T8, bovine trypsin (Bos taurus, UniProt P00760); assay: Inactivation rate of bovine trypsin; format: biochemical; conditions: Table I; pH 7.5, 25° C; [I] 1 to 12 μM; read-out: kobs/[I]
T8 sequence (P00760 24-246): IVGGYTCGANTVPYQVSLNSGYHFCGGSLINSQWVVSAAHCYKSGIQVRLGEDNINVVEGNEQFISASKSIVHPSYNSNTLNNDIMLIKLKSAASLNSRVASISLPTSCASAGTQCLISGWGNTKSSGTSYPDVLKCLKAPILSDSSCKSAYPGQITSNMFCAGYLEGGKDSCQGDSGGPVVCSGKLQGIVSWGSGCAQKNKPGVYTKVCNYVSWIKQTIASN
Method: as §1, §2, §3, §4, §5, §6, §7, §8, §9

[11] = Spontaneous hydrolysis in Hepes buffer; format: physicochemical; conditions: hepes buffer; 0.1 Hepes, 0.5M NaCl, pH 7.5, 9% Me2SO, 25° C; read-out: t1/2 for spontaneous hydrolysis
Method: ^a Conditions were 0.1 Hepes, 0.5M NaCl, pH 7.5 and 9% Me2 SO at
25° C. Spontaneous hydrolysis rates were measured
spectrophotometrically by monitoring the decrease in absorbance due to th
isocoumarin ring system (wavelength 335-380 nm) using the firstorder rate

[12] = molecular target: T9, porcine pancreatic elastase (PPE) (Sus scrofa, UniProt P00772); assay: Inactivation of porcine pancreatic elastase (PPE); format: biochemical; conditions: for kinact/KI: Table IV, pH 7.5, 25° C, [I] 0.01 to 0.51 mM, read-out: kobs/[I]
T9 construct: from tissue; host or cells: porcine pancreas (from the name)

[13] = molecular target: T10, human plasma kallikrein (Homo sapiens, UniProt P03952); assay: Inactivation rate of human plasma kallikrein; format: biochemical; conditions: Table I; pH 7.5, 25° C; [I] 3 to 330 μM (footnote g); read-out: kobs/[I]
T10 construct: human plasma kallikrein; from tissue; host or cells: human plasma (from the name)
Method: as §1, §2, §3, §4, §5, §6, §7

[14] = molecular target: complement protein D (Homo sapiens, UniProt P00746); assay: Inactivation rate of complement protein D; format: biochemical; conditions: Table II; pH 7.5, 25° C; [I] 0.05 to 1.29 mM; read-out: kobs/[I]
Method: as §1
^a Conditions were 0.1M Hepes, 0.5M NaCl, pH 7.5, 8-10% Me2 SO
and 25° C. Inactivation rates were measured by incubation method.
Enzyme concentrations were as follows: protein D, 1-9 μM; C2, 0.7-1
μM; B, 1.8 μM; Bb, 0.3-0.8 μM; Cl^- s, 0.07 μM; Cl^-

[15] = molecular target: T11, bovine factor Xa (Bos taurus, UniProt P00743); assay: Inactivation rate of bovine factor Xa; format: biochemical; conditions: Table I; pH 7.5, 25° C; [I] 0.4 to 310 μM; read-out: kobs/[I]
T11 construct: bovine factor Xa

[16] = molecular target: T12, human thrombin (Homo sapiens, UniProt P00734); assay: Inactivation rate of human thrombin; format: biochemical; conditions: Table VIII; pH 7.5, 25° C; [I] 1.2-54 μM; read-out: kobs/[I]
T12 construct: human thrombin
Method: as §1, §8, §9

[17] = tested on: pig plasma; assay: Prothrombin time (PT), pig plasma; conditions: [I] 32 μM
[18] = tested on: pig plasma; assay: Activated partial thromboplastin time (APTT), pig plasma; conditions: [I] 32 μM

T3 sequence (P03951 388-625 limits assumed): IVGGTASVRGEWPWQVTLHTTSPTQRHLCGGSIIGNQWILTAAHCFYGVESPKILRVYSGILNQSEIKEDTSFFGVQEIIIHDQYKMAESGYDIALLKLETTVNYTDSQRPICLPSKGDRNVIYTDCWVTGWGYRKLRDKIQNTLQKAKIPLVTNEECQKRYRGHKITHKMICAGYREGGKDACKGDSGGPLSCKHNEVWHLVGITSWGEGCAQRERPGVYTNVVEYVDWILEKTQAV
T3 sequence (P03951 19-387 partner limits assumed): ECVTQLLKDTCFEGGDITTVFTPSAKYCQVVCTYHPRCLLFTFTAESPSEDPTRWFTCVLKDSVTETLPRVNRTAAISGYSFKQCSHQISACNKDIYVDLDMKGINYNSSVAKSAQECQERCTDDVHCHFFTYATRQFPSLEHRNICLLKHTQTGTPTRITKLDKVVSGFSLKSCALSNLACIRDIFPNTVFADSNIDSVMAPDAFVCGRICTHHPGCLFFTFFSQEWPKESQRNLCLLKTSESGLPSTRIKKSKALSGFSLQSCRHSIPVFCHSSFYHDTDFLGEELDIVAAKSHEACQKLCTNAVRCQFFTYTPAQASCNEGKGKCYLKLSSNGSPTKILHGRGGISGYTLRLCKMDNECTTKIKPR
T6 sequence (P00752 8-246): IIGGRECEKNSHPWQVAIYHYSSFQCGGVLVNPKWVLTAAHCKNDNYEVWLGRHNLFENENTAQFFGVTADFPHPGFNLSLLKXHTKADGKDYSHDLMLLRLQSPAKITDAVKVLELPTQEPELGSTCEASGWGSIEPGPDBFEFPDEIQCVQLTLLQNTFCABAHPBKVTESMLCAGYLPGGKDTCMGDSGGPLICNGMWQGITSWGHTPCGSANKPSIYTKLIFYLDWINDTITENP
T9 sequence (P00772 27-266): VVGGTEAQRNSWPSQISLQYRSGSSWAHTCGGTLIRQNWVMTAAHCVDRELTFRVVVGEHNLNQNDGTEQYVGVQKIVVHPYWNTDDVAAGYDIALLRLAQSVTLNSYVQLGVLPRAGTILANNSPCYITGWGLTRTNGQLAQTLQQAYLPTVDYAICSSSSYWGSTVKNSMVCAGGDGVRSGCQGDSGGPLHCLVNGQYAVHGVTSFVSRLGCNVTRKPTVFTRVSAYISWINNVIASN
T10 sequence (P03952 391-638 limits assumed): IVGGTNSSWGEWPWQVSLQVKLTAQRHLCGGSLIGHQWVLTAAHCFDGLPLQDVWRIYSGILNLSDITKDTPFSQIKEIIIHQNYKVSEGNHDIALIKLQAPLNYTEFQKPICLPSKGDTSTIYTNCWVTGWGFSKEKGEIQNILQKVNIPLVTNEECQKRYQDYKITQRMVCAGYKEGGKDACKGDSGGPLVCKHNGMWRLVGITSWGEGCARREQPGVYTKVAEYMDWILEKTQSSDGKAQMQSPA
T10 sequence (P03952 20-390 partner limits assumed): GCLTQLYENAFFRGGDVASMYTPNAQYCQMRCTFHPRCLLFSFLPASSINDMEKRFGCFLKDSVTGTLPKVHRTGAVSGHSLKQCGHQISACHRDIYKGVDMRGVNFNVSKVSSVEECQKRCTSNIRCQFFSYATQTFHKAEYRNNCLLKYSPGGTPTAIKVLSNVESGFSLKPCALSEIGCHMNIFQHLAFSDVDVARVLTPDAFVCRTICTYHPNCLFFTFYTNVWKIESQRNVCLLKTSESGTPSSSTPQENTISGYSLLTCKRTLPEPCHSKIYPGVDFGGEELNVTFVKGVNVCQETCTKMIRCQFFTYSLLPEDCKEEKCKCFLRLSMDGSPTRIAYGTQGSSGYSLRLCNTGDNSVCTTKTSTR
complement protein D, sequence (P00746 26-253): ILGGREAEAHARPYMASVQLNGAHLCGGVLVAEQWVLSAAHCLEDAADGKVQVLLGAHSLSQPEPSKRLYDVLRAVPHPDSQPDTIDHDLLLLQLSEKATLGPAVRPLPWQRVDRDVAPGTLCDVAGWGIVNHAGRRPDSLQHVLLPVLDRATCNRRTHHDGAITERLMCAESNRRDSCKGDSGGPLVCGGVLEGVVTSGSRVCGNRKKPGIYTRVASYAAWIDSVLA
T11 sequence (P00743 234-492 limits assumed): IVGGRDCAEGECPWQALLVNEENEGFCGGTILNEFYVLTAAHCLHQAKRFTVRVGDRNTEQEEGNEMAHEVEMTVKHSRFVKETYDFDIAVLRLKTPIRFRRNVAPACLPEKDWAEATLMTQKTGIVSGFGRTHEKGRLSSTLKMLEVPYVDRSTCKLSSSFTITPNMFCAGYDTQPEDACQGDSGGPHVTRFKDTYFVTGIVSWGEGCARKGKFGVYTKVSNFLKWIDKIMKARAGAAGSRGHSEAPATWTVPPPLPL
T11 sequence (P00743 41-180 partner limits assumed): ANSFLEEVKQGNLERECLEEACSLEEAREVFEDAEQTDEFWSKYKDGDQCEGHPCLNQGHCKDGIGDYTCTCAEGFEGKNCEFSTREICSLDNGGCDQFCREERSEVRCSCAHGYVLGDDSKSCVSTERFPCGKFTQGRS
T4 sequence (P00747 581-810 limits assumed): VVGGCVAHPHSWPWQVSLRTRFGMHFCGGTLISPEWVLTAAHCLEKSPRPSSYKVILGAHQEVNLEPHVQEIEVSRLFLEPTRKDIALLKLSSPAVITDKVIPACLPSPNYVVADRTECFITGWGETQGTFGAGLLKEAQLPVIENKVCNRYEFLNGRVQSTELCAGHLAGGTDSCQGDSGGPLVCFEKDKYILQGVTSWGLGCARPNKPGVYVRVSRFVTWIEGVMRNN
T4 sequence (P00747 97-580 partner limits assumed): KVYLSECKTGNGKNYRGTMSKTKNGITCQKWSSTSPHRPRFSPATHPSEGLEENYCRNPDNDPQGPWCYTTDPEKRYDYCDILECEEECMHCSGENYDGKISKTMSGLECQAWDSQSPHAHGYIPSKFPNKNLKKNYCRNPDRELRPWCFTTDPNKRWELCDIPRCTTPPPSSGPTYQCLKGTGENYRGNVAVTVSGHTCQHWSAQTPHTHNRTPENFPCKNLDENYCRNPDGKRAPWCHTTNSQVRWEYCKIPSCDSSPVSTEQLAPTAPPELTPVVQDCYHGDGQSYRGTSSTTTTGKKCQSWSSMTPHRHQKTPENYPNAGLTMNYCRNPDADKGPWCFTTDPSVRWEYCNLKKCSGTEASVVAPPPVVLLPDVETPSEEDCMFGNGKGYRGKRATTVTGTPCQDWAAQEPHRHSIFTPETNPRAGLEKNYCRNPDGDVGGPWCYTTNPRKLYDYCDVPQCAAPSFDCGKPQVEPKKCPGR

| SMILES | kinact/KI ([1]; Table IV, [I] 0.004 to 0.33 mM) | kinact/KI [2] | kinact/KI [4] | kinact/KI [6] | kinact/KI [7] | kinact/KI ([8]; Table I, [I] 0.3 to 400 μM) | kobs/[I] [9] | kinact/KI [10] | half-life [11] | kinact/KI [12] | kinact/KI [13] | kinact/KI [14] | kinact/KI [15] | further results |
| --- | --- | --- | --- | --- | --- | --- | --- | --- | --- | --- | --- | --- | --- | --- |
| NCCCOc1cc2ccccc2c(=O)o1 [3-(3-aminopropoxy)isocoumarin] | 38 M⁻¹ s⁻¹ | 47 M⁻¹ s⁻¹ | 30 M⁻¹ s⁻¹ | 3 M⁻¹ s⁻¹ | 5 M⁻¹ s⁻¹ | 3 M⁻¹ s⁻¹ | 8.1 M⁻¹ s⁻¹ | 1200 M⁻¹ s⁻¹ | 10.1 h | 2.3 M⁻¹ s⁻¹ | 30 M⁻¹ s⁻¹ |  |  | kinact/KI ([3]; Table IV, [I] 0.002 to 0.35 mM): 2.8 M⁻¹ s⁻¹; kinact/KI [5]: 36 M⁻¹ s⁻¹ |
| CCOc1oc(=O)c2ccccc2c1Cl [3-ethoxy-4-chloroisocoumarin, reference compound] |  |  |  |  |  |  |  |  |  |  |  | 0.25 M⁻¹ s⁻¹ |  |  |
| COc1oc(=O)c2cc(N)ccc2c1Cl [7-amino-3-methoxy-4-chloroisocoumarin, reference compound] |  |  |  |  |  |  |  |  |  |  |  | 1.3 M⁻¹ s⁻¹ |  |  |
| N=C(N)Nc1ccc2cc(OCCc3ccccc3)oc(=O)c2c1 [7-guanidino-3-(2-phenylethoxy)isocoumarin] | 2600 M⁻¹ s⁻¹ | 0.9 M⁻¹ s⁻¹ | 1200 M⁻¹ s⁻¹ | 690 M⁻¹ s⁻¹ | 16000 M⁻¹ s⁻¹ | 5700 M⁻¹ s⁻¹ | 150 M⁻¹ s⁻¹ | 45000 M⁻¹ s⁻¹ | 2.33 h |  | 62000 M⁻¹ s⁻¹ |  | 11000 M⁻¹ s⁻¹ | inhibition at 530 µM ([3]; Table IV, not time dependent, at 0.53 mM): 87% |
| CCOc1cc2ccc(NC(=N)N)cc2c(=O)o1 [7-guanidino-3-ethoxyisocoumarin] | 990 M⁻¹ s⁻¹ | 1900 M⁻¹ s⁻¹ | 3100 M⁻¹ s⁻¹ | 1300 M⁻¹ s⁻¹ | 16000 M⁻¹ s⁻¹ | 3700 M⁻¹ s⁻¹ | 150 M⁻¹ s⁻¹ | 20000 M⁻¹ s⁻¹ | 2.27 h | 86 M⁻¹ s⁻¹ | 44000 M⁻¹ s⁻¹ |  | 2700 M⁻¹ s⁻¹ | inhibition at 47 µM ([3]; Table IV, not time dependent, at 47 μM): 87% |
| C[C@@H](NC(=O)Nc1ccc2c(Cl)c(OCCSC(=N)N)oc(=O)c2c1)c1ccccc1 [R-C6 H5 (CH3)CHNHCONH-CiTEtOIC, 7-((R)-α-methylbenzylcarbamoylamino)-4-chloro-3-(2-isothiureidoethoxy)isocoumarin] |  |  |  |  |  |  |  |  |  |  |  |  |  | kinact/KI ([1]; Table X, [I] 0.9-43 μM): 360 M⁻¹ s⁻¹; percentage of inhibition ([2]; Table X, after 5 min incubation): 40%; kinact/KI ([3]; Table X, [I] 33-46 μM): 145 M⁻¹ s⁻¹; kinact/KI [16]: 12000 M⁻¹ s⁻¹; PT [17]: 26.2 s; kinact/KI ([8]; Table VIII, [I] 1.2-54 μM): 29500 M⁻¹ s⁻¹; APTT [18]: > 120 s; percentage of inhibition ([12]; Table X, after 20 min incubation): 9% |
